Molecular target: T1, Microsomal triglyceride transfer protein large subunit (Homo sapiens) (UniProt P55157)
T1 sequence (whole entry): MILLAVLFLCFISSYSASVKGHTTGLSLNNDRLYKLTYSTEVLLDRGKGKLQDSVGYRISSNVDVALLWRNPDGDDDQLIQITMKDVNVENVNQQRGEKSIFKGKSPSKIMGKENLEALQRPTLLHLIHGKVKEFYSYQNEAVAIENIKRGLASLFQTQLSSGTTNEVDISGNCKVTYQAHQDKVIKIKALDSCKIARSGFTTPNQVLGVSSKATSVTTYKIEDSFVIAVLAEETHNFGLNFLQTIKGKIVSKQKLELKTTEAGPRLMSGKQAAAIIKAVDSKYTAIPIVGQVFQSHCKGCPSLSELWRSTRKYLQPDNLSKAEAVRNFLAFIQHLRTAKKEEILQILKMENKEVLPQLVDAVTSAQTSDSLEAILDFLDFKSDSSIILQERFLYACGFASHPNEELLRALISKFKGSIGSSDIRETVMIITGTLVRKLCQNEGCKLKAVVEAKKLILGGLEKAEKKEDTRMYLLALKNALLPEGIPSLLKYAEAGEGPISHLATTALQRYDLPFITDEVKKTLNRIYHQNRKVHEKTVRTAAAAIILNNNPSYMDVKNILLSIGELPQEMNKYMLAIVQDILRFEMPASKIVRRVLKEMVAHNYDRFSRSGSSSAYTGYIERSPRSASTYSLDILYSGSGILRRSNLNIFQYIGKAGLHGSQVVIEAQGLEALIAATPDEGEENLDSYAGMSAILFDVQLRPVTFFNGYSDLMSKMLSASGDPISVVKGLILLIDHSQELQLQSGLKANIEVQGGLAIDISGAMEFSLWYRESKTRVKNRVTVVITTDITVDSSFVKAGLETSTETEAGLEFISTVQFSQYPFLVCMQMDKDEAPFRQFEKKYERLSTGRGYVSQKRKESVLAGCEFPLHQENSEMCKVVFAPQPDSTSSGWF
Test: Inhibition of intestinal MTP in rat by murine gut retention assay
Format: functional
Conditions: target entry is the homologue from another species

ED25 | SMILES
3 mg/kg | Cc1cc(C(=O)N[C@H](C(=O)N2CCCC2)c2ccccc2)ccc1NC(=O)c1ccccc1-c1ccc(C(F)(F)F)cc1
6.93 mg/kg | O=C(N[C@H](C(=O)N1CCCC1)c1ccccc1)c1ccc(NC(=O)c2ccccc2-c2ccc(C(F)(F)F)cc2)nc1
